In brackets after ≈: the same amount, converted by molar mass. Like-named read-outs stand apart in the source and are kept apart here.
Key:
in vitro = details: cat
FHV-1 gB = FHV-1 gB (Feline herpesvirus 1, UniProt Q86665); assay: biochemical; format: binding, feline herpesvirus-1 (FHV-1); details: for koff: read-out: Kdis (rate of dissociation); for kon: read-out: Kon (rate of association); for Binding and dissociation kinetics in words: BLI, gB
FHV-1 [1] = assay: Cytopathic effect (CPE) inhibition assay; details: for Anti-FHV-1: in vitro anti-FHV-1 effect in CRFK cells, √ / × (key not given); for EC50: Felid alphaherpesvirus 1, CRFK, 48 h
FHV-1 [2] = test system: FHV-1; parameters: method as in earlier work; details: reported for CRFK cells; cited from earlier work
FHV-1 [3] = assay: Fusion and entry assays with DIOC- and R18-labelled virus (confocal microscopy); format: cell-based, feline herpesvirus-1 (FHV-1); details: 10 MOI, CRFK cells; for Adsorption of DIOC-labelled FHV-1: 4 °C 2 h
FHV-1 [4] = assay: Plaque reduction assay; format: cell-based, feline herpesvirus-1 (FHV-1); details: CRFK cells
gB = format: binding, feline herpesvirus-1 (FHV-1)
FHV-1 [5] = assay: Time of drug addition assay with qPCR of viral nucleic acid copies; format: cell-based, feline herpesvirus-1 (FHV-1); details: for Inhibition of FHV-1 entry into host cells (virus entry assay): 4 °C pre-incubation then 37 °C, Saikosaponin B2 50 μg/mL; for FHV-1 nucleic acid copy numbers after drug pretreatment of cells: CRFK cells pretreated before infection, qPCR
CRFK cells = details: 48 h, CCK-8

Molecule	CC50 at 48 h (in vitro)	Kd (FHV-1 gB)	koff (FHV-1 gB)	kon (FHV-1 gB)	Anti-FHV-1 (FHV-1 [1])	other results
O=C1c2c(O)cc(O)cc2O[C@H](c2cc(O)c(O)c(O)c2)[C@H]1O [Dihydromyricetin]	3.22 ± 0.43 µg/mL (≈ 10.1 µM)	36.1 µM	0.00506 s⁻¹	140 M⁻¹ s⁻¹	×	–
Nc1nc(O)c2ncn(COC(CO)CO)c2n1 [Ganciclovir]	–	–	–	–	–	EC50 (FHV-1 [2]): 1.33 µg/mL (≈ 5.21 µM)
O=C(/C=C/c1ccc(O)c(O)c1)O[C@@H]1C[C@@](OC(=O)/C=C/c2ccc(O)c(O)c2)(C(=O)O)C[C@@H](O)[C@@H]1O [Cynarine]	–	8.41 µM	0.00596 s⁻¹	709 M⁻¹ s⁻¹	×	CC50 at 48 h (in vitro; CRFK cells): 60.1 ± 1.86 µg/mL (≈ 116 µM)
COc1ccc(-c2cc(=O)c3c(O)cc(O[C@@H]4O[C@H](CO[C@@H]5O[C@@H](C)[C@H](O)[C@@H](O)[C@H]5O)[C@@H](O)[C@H](O)[C@H]4O)cc3o2)cc1O [Diosmin]	449.75 ± 0.21 µg/mL (≈ 739 µM)	90.8 µM	0.034 s⁻¹	374 M⁻¹ s⁻¹	×	–
Nc1nc2c(ncn2COCCO)c(=O)[nH]1 [Acyclovir]	–	–	–	–	–	EC50 (FHV-1 [2]): 13.04 µg/mL (≈ 57.9 µM)
O=C1OC[C@H]2OC(O)[C@H](O)[C@@H](O)[C@@H]2OC(=O)c2cc(O)c(O)c(O)c2-c2c(O)c(O)c3oc(=O)c4c(c(O)c(O)c5oc(=O)c2c3c54)-c2c1cc(O)c(O)c2O (mixture of isomers) [Punicalin]	–	< 1e-06 µM	< 1e-07 s⁻¹	12500 M⁻¹ s⁻¹	√	CC50 at 48 h (in vitro; CRFK cells): 7.65 ± 0.68 µg/mL; Adsorption of DIOC-labelled FHV-1 (FHV-1 [3]): inhibit the adsorption of FHV-1; Inhibition of FHV-1-induced cytopathic effects and plaque formation (FHV-1 [4]): effective inhibitors; Binding and dissociation kinetics in words (FHV-1 gB): rapid binding with no dissociation; EC50 (FHV-1 [1]): 0.22 µg/mL; Thermal stability (Tm) of gB (gB): altered the thermal stability of gB; Inhibition of FHV-1 entry into host cells (virus entry assay) (FHV-1 [5]): reduced effectiveness in inhibiting virus infection; FHV-1 nucleic acid copy numbers after drug pretreatment of cells (FHV-1 [5]): negligible changes
Nc1ccn(C[C@@H](CO)OCP(=O)(O)O)c(=O)n1 [Cidofovir]	–	–	–	–	–	EC50 (FHV-1 [2]): 3.07 µg/mL (≈ 11 µM)
C[C@@H]1O[C@@H](O[C@@H]2[C@@H](O)[C@H](OCCc3ccc(O)c(O)c3)O[C@H](CO)[C@H]2OC(=O)/C=C/c2ccc(O)c(O)c2)[C@H](O)[C@H](O)[C@H]1O [Verbascoside]	79.6 ± 0.99 µg/mL (≈ 127 µM)	39.9 µM	0.00729 s⁻¹	183 M⁻¹ s⁻¹	×	–
CC1OC(OC2CCC3(C)C(CCC4(C)C3C=CC3=C5CC(C)(C)CCC5(CO)C(O)CC34C)C2(C)CO)C(O)C(OC2OC(CO)C(O)C(O)C2O)C1O (centres unmarked) [Saikosaponin B2]	–	–	–	–	√	CC50 at 48 h (in vitro; CRFK cells): 197.5 ± 0.52 µg/mL (≈ 253 µM); Adsorption of DIOC-labelled FHV-1 (FHV-1 [3]): inhibit the adsorption of FHV-1; Entry of R18-labelled FHV-1 (FHV-1 [3]; 4 °C 2 h then 37 °C 2 h): inhibited the entry of FHV-1; Inhibition of FHV-1-induced cytopathic effects and plaque formation (FHV-1 [4]): effective inhibitors; Binding and dissociation kinetics in words (FHV-1 gB): rapid binding and dissociation; EC50 (FHV-1 [1]): 13.5 µg/mL (≈ 17.3 µM); Thermal stability (Tm) of gB (gB): altered the thermal stability of gB; Inhibition of FHV-1 entry into host cells (virus entry assay) (FHV-1 [5]): exhibited inhibitory effects; FHV-1 nucleic acid copy numbers after drug pretreatment of cells (FHV-1 [5]): negligible changes; Viral nucleic acid expression with drug treatment after infection (FHV-1 [5]; drug applied to CRFK cells infected with FHV-1, qPCR): remarkably significant difference
O=C(O)P(=O)(O)O [Foscarnet]	–	–	–	–	–	EC50 (FHV-1 [2]): 44.71 µg/mL (≈ 355 µM)
O=C(O)c1cc(O)c2c(c1)[C@H]([C@H]1c3cc(C(=O)O)cc(O)c3C(=O)c3c(O[C@@H]4O[C@H](CO)[C@@H](O)[C@H](O)[C@H]4O)cccc31)c1cccc(O[C@@H]3O[C@H](CO)[C@@H](O)[C@H](O)[C@H]3O)c1C2=O [Sennoside A]	131 ± 8.86 µg/mL (≈ 152 µM)	< 1e-06 µM	< 1e-07 s⁻¹	1440 M⁻¹ s⁻¹	×	–
Nc1nc2c(ncn2CCC(CO)CO)c(=O)[nH]1 [Penciclovir]	–	–	–	–	–	EC50 (FHV-1 [2]): 3.50 µg/mL (≈ 13.8 µM)
O=c1c(O[C@@H]2O[C@H](CO)[C@H](O)[C@H](O)[C@H]2O)c(-c2ccc(O)c(O)c2)oc2cc(O)cc(O)c12 [Hyperoside]	> 50 µg/mL	23.9 µM	0.00683 s⁻¹	286 M⁻¹ s⁻¹	×	–
O=c1c(O[C@@H]2O[C@H](CO)[C@@H](O)[C@H](O)[C@H]2O)c(-c2ccc(O)c(O)c2)oc2cc(O)cc(O)c12 [Isoquercetin]	289 ± 5.69 µg/mL (≈ 623 µM)	73.3 µM	0.0179 s⁻¹	245 M⁻¹ s⁻¹	×	–
O=C(O)[C@H]1O[C@@H](Oc2cc3oc(-c4ccccc4)cc(=O)c3c(O)c2O)[C@H](O)[C@@H](O)[C@@H]1O [Baicalin]	65.8 ± 2.12 µg/mL (≈ 147 µM)	41.6 µM	0.922 s⁻¹	1090 M⁻¹ s⁻¹	×	–
C=CCS[S+]([O-])CC=C (centres unmarked) [Allicin]	84.9 ± 0.87 µg/mL (≈ 523 µM)	3530 µM	0.00299 s⁻¹	0.846 M⁻¹ s⁻¹	×	–
Ivermectin	–	–	–	–	×	CC50 (CRFK cells): 1.81 ± 0.06 µg/mL
O=C(O)[C@H]1O[C@@H](Oc2cc3oc(-c4ccc(O)cc4)cc(=O)c3c(O)c2O)[C@H](O)[C@@H](O)[C@@H]1O [Scutellarin]	185 ± 3.37 µg/mL (≈ 401 µM)	0.647 µM	0.00875 s⁻¹	13500 M⁻¹ s⁻¹	×	–
O=c1[nH]c(=O)n([C@H]2C[C@H](O)[C@@H](CO)O2)cc1I [Idoxuridine]	–	–	–	–	–	EC50 (FHV-1 [2]): 1.52 µg/mL (≈ 4.29 µM)
O=C1O[C@H]2[C@@H]3OC(=O)c4cc(O)c(O)c(O)c4-c4c(O)c(O)c5oc(=O)c6c(c(O)c(O)c7oc(=O)c4c5c76)-c4c(cc(O)c(O)c4O)C(=O)OC[C@H]3OC(O)[C@@H]2OC(=O)c2cc(O)c(O)c(O)c2-c2c1cc(O)c(O)c2O (mixture of isomers) [Punicalagin]	3.32 ± 0.28 µg/mL	< 1e-06 µM	< 1e-07 s⁻¹	8740 M⁻¹ s⁻¹	√	Adsorption of DIOC-labelled FHV-1 (FHV-1 [3]): inhibit the adsorption of FHV-1; Inhibition of FHV-1-induced cytopathic effects and plaque formation (FHV-1 [4]): effective inhibitors; Binding and dissociation kinetics in words (FHV-1 gB): rapid binding with no dissociation; EC50 (FHV-1 [1]): 2.19 µg/mL; Thermal stability (Tm) of gB (gB): altered the thermal stability of gB; Inhibition of FHV-1 entry into host cells (virus entry assay) (FHV-1 [5]): reduced effectiveness in inhibiting virus infection; FHV-1 nucleic acid copy numbers after drug pretreatment of cells (FHV-1 [5]): negligible changes
O=C(C=Cc1ccc(O)c(O)c1)OC1CC(O)(C(=O)O)CC(O)C1OC(=O)C=Cc1ccc(O)c(O)c1 (centres unmarked) [4,5-Dicaffeoylquinic acid]	–	7.96 µM	0.0652 s⁻¹	8180 M⁻¹ s⁻¹	×	CC50 at 48 h (in vitro; CRFK cells): 54.5 ± 2.89 µg/mL (≈ 106 µM)

— PMC10892935 (Viruses, 2024)
